The format of data set [1] is physicochemical. An excerpt: Therefore, peptides designed by reducing the number of amino acid residues in these two peptides to 8 (LIPH4-23s and LIPH4-NTNBs) were next chemically synthesized.
The target in data set [2] is T1, binding between preS1 and heparan sulfate enhanced by LIPG (Homo sapiens, UniProt Q9Y5X9).
T1 construct: FLAG
T1 sequence (Q9Y5X9 21-500): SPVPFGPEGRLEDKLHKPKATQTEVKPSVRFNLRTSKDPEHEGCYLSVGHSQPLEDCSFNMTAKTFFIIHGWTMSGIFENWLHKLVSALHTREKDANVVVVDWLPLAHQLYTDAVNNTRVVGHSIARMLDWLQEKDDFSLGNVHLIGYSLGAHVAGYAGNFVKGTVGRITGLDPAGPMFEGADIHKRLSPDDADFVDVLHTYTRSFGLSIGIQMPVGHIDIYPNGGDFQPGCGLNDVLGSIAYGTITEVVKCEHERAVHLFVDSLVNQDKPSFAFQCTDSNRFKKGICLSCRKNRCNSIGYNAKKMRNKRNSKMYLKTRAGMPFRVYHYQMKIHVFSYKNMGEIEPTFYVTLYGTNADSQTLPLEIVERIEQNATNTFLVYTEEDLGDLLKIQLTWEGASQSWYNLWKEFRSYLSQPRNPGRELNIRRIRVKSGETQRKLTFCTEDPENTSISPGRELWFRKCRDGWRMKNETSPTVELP
Briefly: Plate assay of binding between preS1 peptide and immobilized heparan sulfate with FLAG-LIPG. The note with it: 10 or 100 nmol of peptide per well, concentration-dependent. How it is done:
FIG. 22-2 The effect of LIPG to promote HBV entry into cells and the effect of a LIPG-binding peptide and Netrin-1 to inhibit HBV entry into cells. E: A biotin-labeled form of heparan sulfate was added to a streptavidin-coated 96 well plate and left overnight at 4° C. to allow the heparan sulfate to bind to the plate. This plate was washed with TBS, and 10, 25, or 50 fmol of FLAG-LIPG was then added to each well to allow the reaction to proceed at room temperature for 2 hours. After the plate was washed, 10 or 100 nmol of LIPG-binding peptide LIPH4-NTNBS, LIPH4-23S, LIPH4-NTNBSA, or LIPH4-23SA was added to each well to allow the treatment to proceed at room temperature for 1 hour. Subsequently, the plate was washed, and 0.1 nmol of preS1-TMR was added to each well to allow the treatment to proceed at room temperature for another 1 hour. The plate was washed and then placed in a plate reader to measure the fluorescence of TMR.
Furthermore, PXB cells treated with Netrin-1 were further treated with FLAG-LIPG, and the uptake of the preS1 peptide was examined, to find that the enhancement of the uptake of the preS1 peptide by FLAG-LIPG was suppressed by Netrin-1 (FIG. 22D). In addition, a biotin-labeled heparan sulfate was immobilized on a streptavidin-coated plate and the preS1 peptide was added thereto to study the binding between the preS1 region of HBV and heparan sulfate present on the cell surface.

Data set [3] concerns HBV. The data set is described as follows: Anti-HBV activities of LIPG-binding peptides in PXB cells. The settings on record: for anti-HBV activity (effect to reduce HBV DNA and cccDNA copy numbers): HBV-infected PXB cells. It is filed as cell-based. On the procedure: An infection source medium was prepared by adding the HBV-infected chimeric mouse serum (PhoenixBio), DMSO, and a PEG 8000 solution to the PXB cell culture medium (PhoenixBio) at final concentrations of 5 genome equivalents/cell, 2%, and 4%, respectively. Various synthesized peptides were diluted to different concentrations in this medium, and the resulting media were added individually to PXB cells (PhoenixBio). After the cells were left to stand in a 5% CO2 incubator at 37° C. for 20 to 28 hours, the medium was removed and the wells were washed once with PBS(−). DMSO and one of the various synthesized peptides were added to the PXB cell culture medium at a final concentration of 2% and different concentrations, respectively, and the resulting media were added individually to the PXB cells to perform medium exchange. This medium exchange was performed at 1, 5, and 9 days post infection and samples were collected at 14 days post infection.
(§1) SMI TEST™ M EX-R&D (Medical & Biological Laboratories) was used to extract DNA from the samples. The extracted DNA was used as a template for quantitative PCR of HBV-DNA. For cccDNA detection, the extracted DNA was treated with T5 exonuclease (New England Biolabs), and the resulting DNA was used as a template for quantitative PCR. The T5 exonuclease treatment was performed at 37° C. for 30 minutes, and the DNase was later inactivated by heating at 80° C. for 15 minutes. The following primer set was used for detection.
PXB cells, fresh human liver cells isolated from PXB mice (human hepatocyte chimeric mice), are human liver cells that maintain human liver functions at high levels and allow persistent infection with hepatitis B virus (HBV). Therefore, PXB cells were used to evaluate the anti-HBV activities of LIPG-binding peptides. LIPG-binding peptides were chemically synthesized because they were added extracellularly (Eurofins Genomics K.K.). Clones that had shown excellent results in the studies of Examples 10 and 1 (KIgk-LIPH4-23, KIgk-LIPH4-74, KIgk-LIPH4-15, KIgk-L1l 14-2. KIgk-LIPH14-14. KIgk-LIPH4-87) were selected for chemical synthesis of the peptides. […] Therefore, LIPH4-NTNA and LIPH4-NTNB, which share a common sequence with netrins and consist of 16 amino acids, were also chemically synthesized. The chemically synthesized peptides were dissolved in DMSO for use in HBV assays in PXB cells.
Next, the anti-HBV activity of full-length Netrin-1 was examined in PXB cells. A full-length human recombinant Netrin-1 protein consisting of 604 amino acid residues (molecular weight: 67.5 kDa, SEQ ID NO: 28) was purchased from R&D Systems. United States. A shRNA with the sequence […]ctcgagc[…] TTTTTTG (single underline: terminal sequences for cloning, lowercase letters: hairpin loop sequence) (SEQ ID NO: 64) was used to knock down the Netrin-1 gene.

Data set [4] has as its system HBV. Briefly: Anti-HBV activities of LIPG-binding peptides in HepG2-NTCP-C4 cells (plasmid transfection). It is filed as cell-based. How it is done:
as §1
Cells were infected with HBV derived from HepG2.2.15 at 20,000 genome equivalents/cell, and plasmids carrying different peptides were transfected individually into the cells 12 to 15 days post infection using Lipofectamine 3000. Samples were collected 3 to 5 days after transfection for evaluation of HBV-DNA, cccDNA, pgRNA, and the like.
For the clones positive in the pull-down experiment against full-length LIPG, the anti-HBV activities of the LIPG peptides were evaluated in HepG2-NTCP-C4 cells (FIG. 17). A secretion signal is added to a plasmid carrying each peptide. Therefore, the peptides are expected to be secreted from cells transfected with the plasmids and to bind to LIPG in the extracellular environment. […] Moreover, the copy number of cccDNA was reduced by almost all the clones.

Data set [5] addresses T2, full-length form of LIPG (500 amino acids) (Homo sapiens, UniProt Q9Y5X9).
T2 construct: A pull-down assay was performed on the full-length form of LIPG (500 amino acids); made in house
T2 sequence (Q9Y5X9 21-500): T1 sequence (Q9Y5X9 21-500)
Briefly: Pull-down assay of LIPH4 peptides against full-length LIPG. It is filed as binding. The settings on record: culture supernatant of transfected 293T cells, compared with no bait. On the procedure: Human embryonic kidney 293T cells were cultured in DMEM (1.0 g/l glucose) with L-Gln and Sodium Pyruvate, liquid (Nacalai) supplemented with 10% FCS ([…]). Plating was performed in a 1:2 ratio on 6 cm dishes 24 hours before transfection. Lipofectamine 2000 in a volume of 20 μl was added to 500 μl of Opti-MEM 1 and allowed to stand for 5 minutes at room temperature, and the resulting mixture was gently added to a 6 cm dish containing a mixture of 500 μl of Opti-MEM 1 and 8 μg of a plasmid DNA. The resulting mixture was allowed to stand for 20 minutes at room temperature, and then added to a 6 cm dish containing 293T cells, and the cells were cultured at 37° C. in 5% CO2 for 4 to 6 day.
Resin (Streptavidin MagneSphere Paramagnetic Particles) (Promega) was washed using the MagneSphere Technology Magnetic Separation Stand (tweleve-position). The resin in a volume of 40 μl was added to each 1.5 ml tube, and after removal of the solution, washed three times with 1 ml of PBS. The resin was transferred to new tubes and mixed with 0.5 nmol (109 μl) of LIPG-BioFLAGHis or with 109 μl of PBS as a no bait control, and the resulting mixtures were agitated at 4° C. for 1 hour by rotation on a mini-disk rotor (BIO CRAFT) to allow binding. After removal of the solution, the resin was washed three times with 1 ml of TBST (containing 0.05% Tween 20). The resin was transferred to new tubes, blocked with 1 ml of ELISA BSA buffer (TBS, 0.05%, Tween 20, 1% BSA. Nacalai Tesque, Inc.) at 4° C. for 1 hour, and then washed three times with 1 ml of ELISA BSA buffer. The resin was transferred to new tubes, and 1000 μl of the culture supernatant containing expressed KIgk-LIPH4 was mixed with […] of the resin treated with LIPG-BioFLAGHis or without the bait, and the resulting mixtures were agitated at 4° C. for 1 hour and 30 minutes by rotation on a mini-disk rotor (BIO CRAFT) to allow binding. After removal of the solution, the resin was washed three times with […] of TBST (Tween 20, 0.1%), and the recovered resin was used for Western blotting.
Each resin was mixed with water and LDS sample buffer (4×), 0.2 mM DTT, heated at 70° C. for 10 minutes, and then subjected to SDS-PAGE. SDS-PAGE was performed using 4-12% Bis-Tris gel and NuPAGE MES-SDS electrophoresis buffer (Invitrogen) at 200 V and 400 mA for 35 minutes. After electrophoresis, transfer was performed using Mini Format, 0.2-μm PVDF, Single-application (BIO-RAD) Trans-Blot Turbo. The membrane was blocked with a Blocking One Buffer: TBST (1:9) solution and reacted with an anti-Flag-HRP (Sigma: A8592) diluted 2:3000 in a Blocking One Buffer: TBST (1:9) solution. Detection was performed using ECL (Enhanced ChemiLuminescence) on a ChemiDoc (BIO-RAD).
A pull-down assay was performed on the full-length form of LIPG (500 amino acids) with LIPH4 peptides (FIG. 16).

Residues, ends and D or L forms follow the SMILES beside them.

On to `CC(C)C[C@H](N)C(=O)N[C@@H](CC(N)=O)C(=O)N[C@@H](CS)C(=O)N[C@@H](CCCNC(=N)N)C(=O)N[C@@H](CC(=O)O)C(=O)N[C@@H](CC(N)=O)C(=O)N[C@H](C(=O)N[C@@H](CCCNC(=N)N)C(=O)O)[C@@H](C)O` [LIPH4-23s] (H-LNCRDNTR-OH; N-terminus and C-terminus assumed), for which the “solubility in PBS” value in data set [1] is “soluble in PBS (water soluble)”.
As to `C[C@H](NC(=O)[C@@H](NC(=O)[C@H](CC(N)=O)NC(=O)[C@H](Cc1c[nH]cn1)NC(=O)[C@H](CCCNC(=N)N)NC(=O)[C@H](CS)NC(=O)[C@@H](N)CC(N)=O)[C@@H](C)O)C(=O)NCC(=O)O` [LIPH4-NTNBs] (H-NCRHNTAG-OH; N-terminus and C-terminus assumed), the “solubility in PBS” value in data set [1] is “soluble in PBS (water soluble)”.
Consider LNARDNTR (LIPH4-23SA), for which the “LIPG-mediated enhancement of binding between preS1 and heparan sulfate” value in data set [2] is reported as “inhibited”. Moreover, the “anti-HBV activity (effect to reduce HBV DNA and cccDNA copy numbers)” value in the data set with HBV [3] was “as strongly as the original polypeptides”.
Take LNCRDNTRPVMSAMTC (LIPH4-23): the anti-HBV activity result in the data set on HBV [4] is “remarkable anti-HBV activity”. For the same molecule, the “anti-HBV activity (effect to reduce HBV DNA and cccDNA copy numbers)” value in the data set with HBV [3] is reported as “high anti-HBV activity”.
In the case of LNCRDNTRPVMSAMTC [KIgk-LIPH4-23], the “copy number of HBV-DNA” value in the data set on HBV [4] (vs control) is “reduced the copy number of HBV-DNA to near zero”. For the same molecule, the “binding to LIPG in pull-down assay” value in data set [5] was “positive”.
In the case of NARHNTAG (LIPH4-NTNBsA), the “LIPG-mediated enhancement of binding between preS1 and heparan sulfate” value in data set [2] was “inhibited”. Also, in the data set on HBV [3], the “anti-HBV activity (effect to reduce HBV DNA and cccDNA copy numbers)” value is “as strongly as the original polypeptides”. Moreover, in the data set with HBV [3] (PXB cells, each concentration), the “activity in terms of copy number of HBV-DNA relative to LIPH4-NTNBs” value is “equal to or greater than that of LIPH4-NTNBs” and the “activity in terms of copy number of cccDNA relative to LIPH4-NTNBs” value is given as “equal to or greater than that of LIPH4-NTNBs”.

Values taken from patent US20240277861A1, “ANTI-HEPATITIS B VIRUS AGENT TARGETING HOST FACTOR LIPG” (PUROTECH BIO, INC., priority 2021, published 2024).
